Assay results as given in ChEMBL document CHEMBL6071148, “Synthesis and biological evaluation of novel 3,6- amide and thioamide substituted- 2,3,4,9-tetrahydro-1H-carbazoles for anti-cancer activity” (Eur J Med Chem, 2024).
Active and inactive are the calls of the source. The rule behind the calls is not given here.

Tests used:
[1] = test system: MCF7; test: Induction of DNA damage in human MCF7 cells assessed as gammaH2AX positive cells at IC50 incubated for 48 hrs by PI staining based flow cytometric analysis (reference value: 7.58 +/- 1.23%); format: functional
[2] = test system: MCF7; test: Inhibition of cell adhesion in human MCF7 cells assessed as reduction in cell aggregates formation at IC50 incubated for 48 hrs by inverted phase contrast microscopic analysis; format: functional, cell-based
[3] = test system: MCF7; test: Induction of cell cycle arrest in human MCF7 cells assessed as accumulation of cells at S phase at IC50 incubated for 24 hrs by PI staining based flow cytometric analysis relative to control; format: functional
[4] = test system: MCF7; test: Induction of cell cycle arrest in human MCF7 cells assessed as accumulation of cells at S phase at IC50 incubated for 48 hrs by PI staining based flow cytometric analysis; format: functional
[5] = test system: Mitochondrial membrane; test: Disruption of mitochondrial membrane integrity in human MCF7 cells assessed as change in mitochondrial size by TEM analysis; format: cell membranes
[6] = test system: Mitochondrial membrane; test: Disruption of mitochondrial membrane integrity in human MCF7 cells assessed as change in mitochondrial shape by TEM analysis; format: cell membranes
[7] = Cytotoxicity against human MRC5 cells assessed as inhibition of cell proliferation incubated for 72 hrs by MTT assay; format: toxicity, cell-based
[8] = test system: HCT-116; test: Inhibition of colony formation in human HCT-116 cells assessed as reduction in clonogenic capacity incubated for 24 hrs by crystal violet staining based analysis; format: functional, cell-based
[9] = test system: A549; test: Induction of cell cycle arrest in human A549 cells assessed as accumulation of cells at S phase at IC50 incubated for 48 hrs by PI staining based flow cytometric analysis (reference value: 17.825 +/- 3.70%); format: functional
[10] = test system: A549; test: Antitumor activity against human A549 cells xenografted in chicken embryo chorioallantoic membrane assessed as reduction in tumor size; format: functional, cell-based; conditions: dose 1.5-4.5 µM
[11] = test system: Mitochondrial membrane; test: Disruption of mitochondrial membrane integrity in human MCF7 cells assessed as absence of well-developed cristae by TEM analysis; format: cell membranes
[12] = test system: Mitochondrial membrane; test: Disruption of mitochondrial membrane potential in human MCF7 cells assessed as translocation of cytochrome c to cytoplasm at IC50 incubated for 48 hrs by confocal microscopic analysis; format: cell membranes
[13] = test system: Chorioallantoic membrane; test: Anti-angiogenesis activity in chicken embryo chorioallantoic membrane assessed as reduction in blood vessel formation by imaging analysis; format: functional, tissue-based; conditions: Gallus gallus, TDE = time-dependent effect
[14] = test system: Mitochondrial membrane; test: Disruption of mitochondrial membrane integrity in human A549 cells assessed as change in mitochondrial internal organization by TEM analysis; format: cell membranes
[15] = test system: A549; test: Induction of cell cycle arrest in human A549 cells assessed as accumulation of cells at S phase at IC50 incubated for 24 hrs by PI staining based flow cytometric analysis (reference value: 39.41 +/- 2.54%); format: functional
[16] = test system: Mitochondrial membrane; test: Disruption of mitochondrial membrane integrity in human MCF7 cells assessed as change in mitochondrial internal organization by TEM analysis; format: cell membranes
[17] = test system: Mitochondrial membrane; test: Disruption of mitochondrial membrane integrity in human MCF7 cells assessed as presence of large mitochondria by TEM analysis; format: cell membranes
[18] = test system: Mitochondrial membrane; test: Induction of mitochondrial membrane depolarization in human MCF7 cells assessed as increase in mitochondrial fission by measuring appearance of circular mitochondria by confocal microscopic analysis; format: cell membranes
[19] = test system: Mitochondrial membrane; test: Disruption of mitochondrial membrane integrity in human MCF7 cells assessed as mitochondrial swelling by TEM analysis; format: cell membranes

CC(=S)NC1CCc2[nH]c3ccc(Br)cc3c2C1 (centres undefined)
Activity [1]: 16.78% | inhibition [2]: Active | Activity [3]: 25.65% | Activity [4]: Active | Activity [5]: Active | Activity [6]: Active | IC50 at 72 h [7]: > 50 µM | inhibition [8]: Dose-Dependent Effect | Activity [9]: 30.8% | Activity [10]: Dose-Dependent Effect | Activity [11]: Active | Activity [12]: Active | Activity [13]: Tde | Activity [14]: Active | Activity [15]: 27.15% | Activity [16]: Active | Activity [17]: Active | Activity [18]: Active | Activity [19]: Active
